Laboratory results: ChEMBL document CHEMBL4616633, “Citral Inhibits the Inflammatory Response and Hyperalgesia in Mice: The Role of TLR4, TLR2/Dectin-1, and CB2 Cannabinoid Receptor/ATP-Sensitive K+ Channel Pathways” (J Nat Prod, 2020)
Active and inactive are the calls of the source. No cut-off for these calls is given here.

What was measured:
Mus musculus [1] = experiment: Inhibition of carrageenan-induced thermal allodynia in Swiss mouse at 1 mg/kg, ip pretreated for 30 mins followed by carrageenan-stimulation and measured after 6 hrs; assay type: functional, organism-based
Mus musculus [2] = experiment: Inhibition of carrageenan-induced paw edema in Swiss mouse at 1 mg/kg, ip pretreated for 30 mins followed by carrageenan-stimulation and measured after 6 hrs; assay type: functional, organism-based
Mus musculus [3] = experiment: Inhibition of carrageenan-induced paw edema in Swiss mouse at 50 mg/kg, po pretreated for 30 mins followed by carrageenan-stimulation and co-treated with CB1R antagonist AM281 and measured after 6 hrs; assay type: functional, organism-based
[4] = Toxicity in Swiss mouse assessed as effect on total cholesterol level weight at 5 to 2000 mg/kg, po after 14 days; assay type: organism-based; conditions: in vivo, 336 h
[5] = Toxicity in Swiss mouse assessed as effect on blood urea nitrogen level weight at 5 to 2000 mg/kg, po after 14 days; assay type: organism-based; conditions: in vivo, 336 h
Mus musculus [6] = experiment: Inhibition of carrageenan-induced paw edema in Swiss mouse at 50 mg/kg, po pretreated for 30 mins followed by carrageenan-stimulation and co-treated with CB2R antagonist AM630 and measured after 6 hrs; assay type: functional, organism-based
[7] = Toxicity in Swiss mouse assessed as water consumption at 5 mg/kg, po after 14 days (reference value: 50.5%); assay type: organism-based; conditions: in vivo, 336 h
[8] = Toxicity in Swiss mouse assessed as effect on paradoxical breathing at 2000 mg/kg, po after 14 days; assay type: organism-based; conditions: in vivo, 336 h
[9] = Toxicity in Swiss mouse assessed as effect on lung weight at 5 to 2000 mg/kg, po after 14 days; assay type: organism-based; conditions: in vivo, 336 h
Mus musculus [10] = experiment: Inhibition of carrageenan-induced thermal allodynia in Swiss mouse at 50 mg/kg, po pretreated for 1 hr followed by carrageenan-stimulation and measured after 6 hrs relative to control; assay type: functional
[11] = Toxicity in Swiss mouse assessed as effect on creatinine level weight at 5 to 2000 mg/kg, po after 14 days; assay type: organism-based; conditions: in vivo, 336 h
[12] = Toxicity in Swiss mouse assessed as water consumption at 2000 mg/kg, po after 14 days (reference value: 50.5%); assay type: organism-based; conditions: in vivo, 336 h
Mus musculus [13] = experiment: Inhibition of croton oil-induced ear edema in mouse at 0.1 mg/ear administered topically pretreated for 1 hr followed by croton oil-stimulation and measured after 6 hrs relative to control; assay type: functional
[14] = Toxicity in Swiss mouse assessed as effect on liver weight at 5 to 2000 mg/kg, po after 14 days; assay type: organism-based; conditions: in vivo, 336 h
Mus musculus [15] = experiment: Inhibition of carrageenan-induced paw edema in Swiss mouse at 300 mg/kg, po pretreated for 1 hr followed by carrageenan-stimulation and measured after 6 hrs relative to control; assay type: functional
[16] = Toxicity in Swiss mouse assessed as water consumption at 50 mg/kg, po after 14 days (reference value: 50.5%); assay type: organism-based; conditions: in vivo, 336 h
[17] = Toxicity in Swiss mouse assessed as food consumption at 300 mg/kg, po after 14 days (reference value: 27.3%); assay type: organism-based; conditions: in vivo, 336 h
[18] = Toxicity in Swiss mouse assessed as effect on AST level weight at 5 to 2000 mg/kg, po after 14 days; assay type: organism-based; conditions: in vivo, 336 h
Mus musculus [19] = experiment: Inhibition of carrageenan-induced paw edema in Swiss mouse at 100 mg/kg, po pretreated for 1 hr followed by carrageenan-stimulation and measured after 6 hrs relative to control; assay type: functional
[20] = Toxicity in Swiss mouse assessed as food consumption at 5 mg/kg, po after 14 days (reference value: 27.3%); assay type: organism-based; conditions: in vivo, 336 h
[21] = Toxicity in Swiss mouse assessed as effect on ALP level weight at 5 to 2000 mg/kg, po after 14 days; assay type: organism-based; conditions: in vivo, 336 h
[22] = Toxicity in Swiss mouse assessed as food consumption at 2000 mg/kg, po after 14 days (reference value: 27.3%); assay type: organism-based; conditions: in vivo, 336 h
Mus musculus [23] = experiment: Inhibition of zymosan-induced TLR2/Dectin-1 Signaling Pathway assessed as reduction in paw edema in Swiss mouse at 50 mg/kg, po pretreated for 1 hr followed by […] and measured after 48 hrs relative to control; assay type: functional
Mus musculus [24] = experiment: Inhibition of carrageenan-induced thermal allodynia in Swiss mouse at 300 mg/kg, po pretreated for 1 hr followed by carrageenan-stimulation and measured after 6 hrs relative to control; assay type: functional
Mus musculus [25] = experiment: Inhibition of carrageenan-induced thermal allodynia in Swiss mouse at 100 mg/kg, po pretreated for 1 hr followed by carrageenan-stimulation and measured after 6 hrs relative to control; assay type: functional
[26] = Psychoactive effect in Swiss mouse assessed as reduction in locomotor activity by measuring change in distance travelled at 50 mg/kg, po and measured for 6 hrs; assay type: ADME, organism-based; conditions: in vivo
[27] = Toxicity in Swiss mouse assessed as reduction in locomotion at 2000 mg/kg, po after 14 days; assay type: organism-based; conditions: in vivo, 336 h
[28] = Psychoactive effect in Swiss mouse assessed as hypothermic effects at 50 mg/kg, po and measured for 6 hrs by thermometric method; assay type: ADME, organism-based; conditions: in vivo
[29] = Toxicity in Swiss mouse assessed as effect on touch sensitivity at 1000 mg/kg, po after 14 days; assay type: organism-based; conditions: in vivo, 336 h
[30] = Toxicity in Swiss mouse assessed as effect on uric acid level weight at 5 to 2000 mg/kg, po after 14 days; assay type: organism-based; conditions: in vivo, 336 h
[31] = Toxicity in Swiss mouse assessed as increase in weight gain at 5 to 2000 mg/kg, po after 14 days; assay type: organism-based; conditions: in vivo, 336 h
[32] = Psychoactive effect in Swiss mouse assessed as catalepsy effect at 50 mg/kg, po and measured for 6 hrs; assay type: ADME, organism-based; conditions: in vivo
Mus musculus [33] = experiment: Inhibition of carrageenan-induced paw edema in Swiss mouse at 50 mg/kg, po pretreated for 1 hr followed by carrageenan-stimulation and measured after 6 hrs relative to control; assay type: functional
Mus musculus [34] = experiment: Inhibition of carrageenan-induced thermal allodynia in Swiss mouse at 50 mg/kg, po pretreated for 30 mins followed by carrageenan-stimulation and co-treated glibenclamide and measured after 6 hrs; assay type: functional, organism-based
Mus musculus [35] = experiment: Inhibition of carrageenan-induced paw edema in Swiss mouse at 50 mg/kg, po pretreated for 30 mins followed by carrageenan-stimulation and co-treated with glibenclamide and measured after 6 hrs; assay type: functional, organism-based
[36] = Toxicity in Swiss mouse assessed as effect on triglycerides level weight at 5 to 2000 mg/kg, po after 14 days; assay type: organism-based; conditions: in vivo, 336 h
[37] = Toxicity in Swiss mouse assessed as food consumption at 50 mg/kg, po after 14 days (reference value: 27.3%); assay type: organism-based; conditions: in vivo, 336 h
[38] = Toxicity in Swiss mouse assessed as effect on total protein level weight at 5 to 2000 mg/kg, po after 14 days; assay type: organism-based; conditions: in vivo, 336 h
Mus musculus [39] = experiment: Inhibition of LPS-induced TLR4 pathway assessed as reduction in paw edema in Swiss mouse at 50 mg/kg, po pretreated for 1 hr followed by LPS-stimulation and measured after 48 hrs relative to control; assay type: functional
[40] = Toxicity in Swiss mouse assessed as effect on respiratory movement at 1000 mg/kg, po after 14 days; assay type: organism-based; conditions: in vivo, 336 h
Mus musculus [41] = experiment: Inhibition of carrageenan-induced thermal allodynia in Swiss mouse at 50 mg/kg, po pretreated for 30 mins followed by carrageenan-stimulation and co-treated with CB1R antagonist AM281 and measured after 6 hrs; assay type: functional, organism-based
[42] = Toxicity in Swiss mouse assessed as water consumption at 1000 mg/kg, po after 14 days (reference value: 50.5%); assay type: organism-based; conditions: in vivo, 336 h
[43] = Toxicity in Swiss mouse assessed as mortality at 5 to 1000 mg/kg, po after 14 days; assay type: organism-based; conditions: in vivo, 336 h
[44] = Toxicity in Swiss mouse assessed as effect on glucose level weight at 5 to 2000 mg/kg, po after 14 days; assay type: organism-based; conditions: in vivo, 336 h
[45] = Toxicity in Swiss mouse assessed as effect on heart weight at 5 to 2000 mg/kg, po after 14 days; assay type: organism-based; conditions: in vivo, 336 h
[46] = Toxicity in Swiss mouse assessed as effect on ALT level weight at 5 to 2000 mg/kg, po after 14 days; assay type: organism-based; conditions: in vivo, 336 h
[47] = Toxicity in Swiss mouse assessed as food consumption at 1000 mg/kg, po after 14 days (reference value: 27.3%); assay type: organism-based; conditions: in vivo, 336 h
Mus musculus [48] = experiment: Inhibition of carrageenan-induced thermal allodynia in Swiss mouse at 50 mg/kg, po pretreated for 30 mins followed by carrageenan-stimulation and co-treated with CB2R antagonist AM630 and measured after 6 hrs; assay type: functional, organism-based
Mus musculus [49] = experiment: Inhibition of croton oil-induced ear edema in mouse at 0.3 mg/ear administered topically pretreated for 1 hr followed by croton oil-stimulation and measured after 6 hrs relative to control; assay type: functional
[50] = Toxicity in Swiss mouse assessed as effect on kidney weight at 5 to 2000 mg/kg, po after 14 days; assay type: organism-based; conditions: in vivo, 336 h
[51] = Toxicity in Swiss mouse assessed as effect on touch sensitivity at 2000 mg/kg, po after 14 days; assay type: organism-based; conditions: in vivo, 336 h
[52] = Toxicity in Swiss mouse assessed as water consumption at 300 mg/kg, po after 14 days (reference value: 50.5%); assay type: organism-based; conditions: in vivo, 336 h
[53] = Psychoactive effect in Swiss mouse assessed as antinociceptive effect by measuring paw withdrawal latencies at 50 mg/kg, po and measured for 6 hrs; assay type: ADME, organism-based; conditions: in vivo
[54] = Toxicity in Swiss mouse assessed as reduction in locomotion at 1000 mg/kg, po after 14 days; assay type: organism-based; conditions: in vivo, 336 h

COc1ccc(C(=O)c2c(C)n(CCN3CCOCC3)c3cc(I)ccc23)cc1
inhibition (Mus musculus [1]): inactive | inhibition (Mus musculus [2]): inactive

CC(C)=CCCC(C)=CC=O (mixture of isomers)
inhibition (Mus musculus [3]): Active | Activity [4]: Non-Toxic | Activity [5]: Non-Toxic | inhibition (Mus musculus [6]): inactive | Activity [7]: 44.4% | Activity [8]: Non-Toxic | Activity [9]: Non-Toxic | inhibition in vivo at 50 mg/kg (Mus musculus [10]): 62% | Activity [11]: Non-Toxic | Activity [12]: 15.6% | inhibition (INH) (Mus musculus [13]): 22% | Activity [14]: Non-Toxic | inhibition in vivo at 300 mg/kg (Mus musculus [15]): 66% | Activity [16]: 37.5% | Activity [17]: 28.1% | Activity [18]: Non-Toxic | inhibition in vivo at 100 mg/kg (Mus musculus [19]): 70% | Activity [20]: 31.2% | Activity [21]: Non-Toxic | Activity [22]: 8.8% | inhibition in vivo at 50 mg/kg (Mus musculus [23]): 45% | inhibition in vivo at 300 mg/kg (Mus musculus [24]): 62% | inhibition in vivo at 100 mg/kg (Mus musculus [25]): 80% | Activity [26]: Non-Toxic | Activity [27]: Non-Toxic | Activity [28]: Non-Toxic | Activity [29]: Non-Toxic | Activity [30]: Non-Toxic | Activity [31]: Non-Toxic | Activity [32]: Non-Toxic | inhibition in vivo at 50 mg/kg (Mus musculus [33]): 57% | inhibition (Mus musculus [34]): inactive | inhibition (Mus musculus [35]): inactive | Activity [36]: Non-Toxic | Activity [37]: 21.4% | Activity [38]: Non-Toxic | inhibition in vivo at 50 mg/kg (Mus musculus [39]): 70% | Activity [40]: Non-Toxic | inhibition (Mus musculus [41]): Active | Activity [42]: 40% | Activity [43]: Non-Toxic | Activity [44]: Non-Toxic | Activity [45]: Non-Toxic | Activity [46]: Non-Toxic | Activity [47]: 28.1% | inhibition (Mus musculus [48]): inactive | inhibition (INH) (Mus musculus [49]): 83% | Activity [50]: Non-Toxic | Activity [51]: Non-Toxic | Activity [52]: 36% | Activity [53]: Non-Toxic | Activity [54]: Non-Toxic
